Common to all, as to assay type: cell-based
For assay [1], the system named is Ba/F3 cells expressing del19/T790M/C797S (EGFR-DTC). The experiment in a line: Growth inhibition (GI50) of Ba/F3 cells expressing del19/T790M/C797S (EGFR-DTC), Celltiter glo. The conditions noted are these: Mus musculus, BaF3, 72 h. The protocol:
(§1) In this experimental example, a determination was made as to whether the compounds prepared in Examples 1-283 have the ability to inhibit the growth of Ba/F3 cells expressing EGFR-wt, del19/T790M/C797S (EGFR-DTC), L858R/T790M/C797S (EGFR-LTC), del19/T790M (EGFR-DT), and L858R/T790M (EGFR-LT) variants.
(§2) The parental Ba/F3 cell line is a population of cells that are not introduced with EGFR variants. Specifically, 100 μl of a cell line expressing each variant was plated in a 96-well plate at a density of 100,000 cells/ml. 10-point, 4-fold serial dilutions of each compound were prepared, starting at 2 mM. After 4 h, 0.5 μl of the compound (0.5% DMSO) was added, followed by incubation at 37° C. and 5% CO2 for 72 h. After incubation, the number of viable cells was measured using a Celltiter glo assay kit (Promega) and the GI50 of the compound was determined. The term “GI50” refers to the molar concentration (μM) of the compound required for 50% growth inhibition of cells.

The test system of assay [2] is Ba/F3 cells expressing EGFR-wt. Briefly: Growth inhibition (GI50) of Ba/F3 cells expressing EGFR-wt, Celltiter glo. The conditions noted are these: Mus musculus, BaF3, 72 h. On the procedure:
as §1, §2
(In ATP-based viability assays light output follows the ATP content of the culture.)

Assay [3] concerns parental Ba/F3 cell line. The experiment in a line: Growth inhibition (GI50) of the parental Ba/F3 cell line (not introduced with EGFR variants), Celltiter glo. The conditions noted are these: Mus musculus, BaF3, 72 h, parental Ba/F3 cells. The protocol: as §2

The record followed here is patent US20240228458A1, “PYRIMIDINE DERIVATIVE HAVING PROTEIN KINASE INHIBITORY ACTIVITY, AND THERAPEUTIC PHARMACEUTICAL COMPOSITION COMPRISING SAME” (THERAPEX CO., LTD., priority 2021, published 2024).

A word on the GI50: it is the concentration at which growth is held to half of that of the control.

Regarding `CCN1CCN(c2ccc(Nc3ncc(Cl)c(Nc4ccccc4NS(C)(=O)=O)n3)c(OC)n2)CC1` [Example 1], the GI50 lay in the range of 0.1 to 0.5 µM in assay [1], 0.5 to 2 µM in assay [2] and 2 to 10 µM in assay [3].

For `COc1cc(N2CCC(N3CCN(C)CC3)CC2)c(C)cc1Nc1ncc(Cl)c(Nc2ccccc2NS(C)(=O)=O)n1` [Example 2, N-(2-((5-chloro-2-((2-methoxy-5-methyl-4-(4-(4-methylpiperazin-1-yl)piperidin-1-yl)phenyl)amino)pyrimidin-4-yl)amino)phenyl)methanesulfonamide], the GI50 in assay [1] fell in the range of 0.001 to 0.025 µM; in assay [2] it was 0.1 to 0.5 µM; in assay [3], 0.5 to 2 µM.

Regarding `CN1CCN(C2CCN(c3ccc(Nc4ncc(Cl)c(Nc5ccccc5NS(C)(=O)=O)n4)cn3)CC2)CC1` [Example 3, N-(2-((5-chloro-2-((6-(4-(4-methylpiperazin-1-yl)piperidin-1-yl)pyridin-3-yl)amino)pyrimidin-4-yl)amino)phenyl)methanesulfonamide], the GI50 lay within 0.1 to 0.5 µM in assay [1], 0.5 to 2 µM in assay [2] and 0.5 to 2 µM in assay [3].

With `CN1CCN(C2CCN(c3ccc(Nc4ncc(Cl)c(Nc5ccccc5NS(C)(=O)=O)n4)c(OCC(F)(F)F)n3)CC2)CC1` [Example 4, N-(2-((5-chloro-2-((6-(4-(4-methylpiperazin-1-yl)piperidin-1-yl)-2-(2,2,2-trifluoroethoxy)pyridin-3-yl)amino)pyrimidin-4-yl)amino)phenyl)methanesulfonamide], the GI50 in assay [1] is 0.5 to 2 µM; in assay [2], 2 to 10 µM; in assay [3], 2 to 10 µM.

With `CN1CCN(C2CCN(c3ccc(Nc4ncc(Cl)c(Nc5ccccc5NS(C)(=O)=O)n4)cc3F)CC2)CC1` [Example 5, N-(2-((5-chloro-2-((3-fluoro-4-(4-(4-methylpiperazin-1-yl)piperidin-1-yl)phenyl)amino)pyrimidin-4-yl)amino)phenyl)methanesulfonamide], the GI50 in assay [1] lay within 0.001 to 0.025 µM; in assay [2], 0.1 to 0.5 µM; in assay [3], 0.025 to 0.1 µM.

For `COc1cc(N2CCC(N3CCN(C)CC3)CC2)c(C)cc1Nc1ncc(Cl)c(Nc2ccc(F)cc2NS(C)(=O)=O)n1` [Example 12], the figures for the GI50 in assay [1], in assay [2] and in assay [3] were 0.025 to 0.1 µM, 0.1 to 0.5 µM and 2 to 10 µM, respectively.

Turning to `CS(=O)(=O)Nc1cc(F)ccc1Nc1nc(Nc2ccc(N3CCOCC3)nc2)ncc1Cl` [Example 13], the values for the GI50 in assay [1], in assay [2] and in assay [3] were 0.1 to 0.5 µM, 0.5 to 2 µM and 0.5 to 2 µM, respectively.

Consider `CN1CCN(C2CCN(c3ccc(Nc4ncc(Cl)c(Nc5ccc(F)cc5NS(C)(=O)=O)n4)cn3)CC2)CC1` [Example 14], for which the figures for the GI50 in assay [1], in assay [2] and in assay [3] were 2 to 10 µM, above 10 µM and 2 to 10 µM, respectively.

Regarding `CN1CCN(C2CCN(c3ncc(Nc4ncc(Cl)c(Nc5ccc(F)cc5NS(C)(=O)=O)n4)cc3F)CC2)CC1` [Example 16], the GI50 fell in the range of 0.5 to 2 µM in assay [1], 2 to 10 µM in assay [2] and 0.5 to 2 µM in assay [3].

In the case of `COc1nc(N2CCC(N3CCN(C)CC3)CC2)ccc1Nc1ncc(Cl)c(Nc2ccc(F)cc2NS(C)(=O)=O)n1` [Example 17, N-(2-((5-chloro-2-((2-methoxy-6-(4-(4-methylpiperazin-1-yl)piperidin-1-yl)pyridin-3-yl)amino)pyrimidin-4-yl)amino)-5-fluorophenyl)methanesulfonamide], the figures for the GI50 in assay [1], in assay [2] and in assay [3] were 0.5 to 2 µM, 2 to 10 µM and 2 to 10 µM, respectively.

Consider `COc1cc(N2CCC(N3CCN(C)CC3)CC2)c(C)cc1Nc1ncc(Cl)c(Nc2ccccc2C(F)(F)F)n1` [Example 46], for which the GI50 in assay [1], in assay [2] and in assay [3] was 2 to 10 µM in each case.

In the case of `COc1cc(N2CCC(N3CCN(C)CC3)CC2)ccc1Nc1ncc(Cl)c(Nc2ccccc2C(F)(F)F)n1` [Example 47], the GI50 in assay [1] fell in the range of 0.5 to 2 µM; in assay [2] it was 2 to 10 µM; in assay [3], 2 to 10 µM.

As to `CCN1CCN(c2ccc(Nc3ncc(Cl)c(Nc4ccccc4C(F)(F)F)n3)cc2)CC1` [Example 48], the 50% growth inhibitory concentration (GI50) in assay [1] was 0.5 to 2 µM; in assay [2], 2 to 10 µM; in assay [3], 2 to 10 µM.

Take `FC(F)(F)c1ccccc1Nc1nc(Nc2ccc(N3CCOCC3)nc2)ncc1Cl` [Example 49]: the 50% growth inhibitory concentration (GI50) in assay [1] was in the range of 0.5 to 2 µM; in assay [2], 2 to 10 µM; in assay [3], 2 to 10 µM.

Regarding `CNS(=O)(=O)c1ccccc1Nc1nc(Nc2cc(C)c(N3CCC(N4CCN(C)CC4)CC3)cc2OC)ncc1Cl` [Example 50, 2-((5-chloro-2-((2-methoxy-5-methyl-4-(4-(4-methylpiperazin-1-yl)piperidin-1-yl)phenyl)amino)pyrimidin-4-yl)amino)-N-methylbenzenesulfonamide], the GI50 lay in the range of 0.1 to 0.5 µM in assay [1], 0.5 to 2 µM in assay [2] and 0.5 to 2 µM in assay [3].

For `CNS(=O)(=O)c1ccccc1Nc1nc(Nc2ccc(N3CCC(N4CCN(C)CC4)CC3)cc2OC)ncc1Cl` [Example 51, 2-((5-chloro-2-((2-methoxy-4-(4-(4-methylpiperazin-1-yl)piperidin-1-yl)phenyl)amino)pyrimidin-4-yl)amino)-N-methylbenzenesulfonamide], the GI50 in assay [1] was in the range of 0.1 to 0.5 µM; in assay [2], 2 to 10 µM; in assay [3], 2 to 10 µM.

Take `CNS(=O)(=O)c1ccccc1Nc1nc(Nc2ccc(N3CCC(N4CCN(C)CC4)CC3)nc2)ncc1Cl` [Example 52, 2-((5-chloro-2-((6-(4-(4-methylpiperazin-1-yl)piperidin-1-yl)pyridin-3-yl)amino)pyrimidin-4-yl)amino)-N-methylbenzenesulfonamide]: the 50% growth inhibitory concentration (GI50) in assay [1] lay in the range of 0.025 to 0.1 µM; in assay [2] it was 0.1 to 0.5 µM; in assay [3], 0.1 to 0.5 µM.

In the case of `CNS(=O)(=O)c1ccccc1Nc1nc(Nc2ccc(N3CCOCC3)nc2)ncc1Cl` [Example 53, 2-((5-chloro-2-((6-morpholinopyridin-3-yl)amino)pyrimidin-4-yl)amino)-N-methylbenzenesulfonamide], the GI50 in assay [1], in assay [2] and in assay [3] was 0.1 to 0.5 µM throughout.

On to `CCN1CCN(c2ccc(Nc3ncc(Cl)c(Nc4ccccc4S(=O)(=O)NC)n3)c(OC)n2)CC1` [Example 54, 2-((5-chloro-2-((6-(4-ethylpiperazin-1-yl)-2-methoxypyridin-3-yl)amino)pyrimidin-4-yl)amino)-N-methylbenzenesulfonamide], for which the figures for the GI50 in assay [1], in assay [2] and in assay [3] were 2 to 10 µM, 0.1 to 0.5 µM and 2 to 10 µM, respectively.

Take `CNS(=O)(=O)c1ccccc1Nc1nc(Nc2ccc(N3CCC(N4CCN(C)CC4)CC3)nc2OC)ncc1Cl` [Example 55, 2-((5-chloro-2-((2-methoxy-6-(4-(4-methylpiperazin-1-yl)piperidin-1-yl)pyridin-3-yl)amino)pyrimidin-4-yl)amino)-N-methylbenzenesulfonamide]: the GI50 is 0.5 to 2 µM in assay [1], 0.5 to 2 µM in assay [2] and 0.1 to 0.5 µM in assay [3].

Turning to `COc1cc(N2CCC(N3CCN(C)CC3)CC2)c(C)cc1Nc1ncc(Cl)c(Nc2ccccc2S(=O)(=O)NC2CC2)n1` [Example 59, 2-((5-chloro-2-((2-methoxy-5-methyl-4-(4-(4-methylpiperazin-1-yl)piperidin-1-yl)phenyl)amino)pyrimidin-4-yl)amino)-N-cyclopropylbenzenesulfonamide], the GI50 in assay [1], in assay [2] and in assay [3] was 0.5 to 2 µM each time.
